Data as given in US9283277B2, “Methods and compositions for the treatment of obesity” (Children's Medical Center Corporation, priority 2008, dated 2016).

Assays:
[1] = system: ob/ob mice; assay: PBA pretreatment and leptin administration in ob/ob mice; format: in vivo; conditions: for initial body weight: vehicle or PBA pretreated
Method: Nine-week old lean wt and ob/ob mice were orally treated with either PBA (1 g/kg/day) or vehicle (VEH) for 26 days and PERK (Thr980) phosphorylation is examined in the hypothalamus extracts with direct immunoblotting. (B) Ten week-old wt lean and ob/ob mice were intraperitoneally injected with leptin (0.1 mg/kg) after six-hour starvation. Hypothalami were removed 30 minutes after the injections, and pStat3^Tyr705 and total Stat3 levels were examined. (C) Nine-week old lean wt and ob/ob mice were orally treated with PBA (1 g/kg/day) for 10 days. Following the pretreatment period, leptin-deficient ob/ob mice were either administered with VEH or with different doses of leptin through the intraperitoneal route. The effect of VEH or PBA administration on (C) bodyweight (g), (D) percent decrease in bodyweight and (E) 24-hour food intake (n=3 for VEH and n=4 PBA-treated group). Effect of 5 mg/kg/day leptin administration on (F) bodyweight, (G) percent decrease in bodyweight and (H) 24-hour food intake in VEH- or PBA-treated ob/ob mice (n=3 for VEH and n=4 PBA-treated group). Analysis of the same parameters (body weight, percent decrease in bodyweight and 24-hour food intake) in (I, J, K) 1 mg/kg/day and (L, M, N) 0.1 mg/kg/day leptin-treated mice (n=3 for VEH and n=4 PBA-treated group). Data presented as means±SEM (*p<0.05, **p<0.01, ***p<0.001).
To test whether reduction of ER stress will increase leptin sensitivity of the ob/ob mice, we orally administered PBA or vehicle for 10 days as a pretreatment. Following this period, daily leptin injections (IP) were given at doses ranging from 0.01 mg/kg/day to 5 mg/kg/day. […]

[2] = system: ob/ob mice; assay: TUDCA pretreatment and leptin in ob/ob mice (bodyweight, metabolic cage, DEXA); format: in vivo
Method: (a) Hypothalamic PERK phosphorylation (Thr980) after 21 days of vehicle or TUDCA (150 mg/kg/day) treatment. Following a five-day pretreatment with TUDCA (150 mg/kg/day) or vehicle, nine-ten week old ob/ob mice were treated either with leptin (1 mg/kg/day) or vehicle. (b) Body weight (g), (c) % decrease in body weight, (d) daily food intake of the ob/ob mice during 18 days of treatment period with the indicated regimens. (e) Blood glucose (mg/dl) levels at the 18th day of treatment. Metabolic cage studies were performed; (f) CO2 production (ml/kg/hr), (g) O2 consumption (ml/kg/hr), (h) Respiratory exchange ratio (VCO2/VO2), (i) X-axis ambulatory activity, (j) Heat generation (kcal/hr). Dexa scan analysis of (k) total fat amount (g), (l) fat % and (m) lean body mass (g). C57BL/6 male wt mice were kept on HFD feeding for 32 weeks and following a five day acclimation period were pretreated with TUDCA (150 mg/kg/day) for five days. At the end of pretreatment period intraperitoneal vehicle and leptin (1 mg/kg/day) treatments were started. (n) Body weight (g), (o) % decrease in bodyweight of the HFD-fed mice during the 16-day treatment. (n=6 for VEH, n=7 for Lep, n=7 for TUD, n=8 for TUD+Lep group). Error bars are ±S.E.M., P values are determined by Student's t-test. (*p<0.05, **p<0.01, ***p<0.001)
If the postulate that reduction of ER stress in the hypothalamus increases leptin sensitivity is true, chemical chaperones other than PBA should also create the same effect and sensitize the obese mice to leptin. TUDCA is a hydrophilic bile acid, which has a completely different structure than PBA, but has chemical chaperone activity in common^25. First, we investigated whether TUDCA can reduce ER stress in the hypothalamus of the ob/ob mice. For this purpose we treated ob/ob mice either with vehicle or TUDCA (150 mg/kg/day) for a period of 21 days and analyzed the hypothalamic PERK phosphorylation. […] To address this question we first pretreated the ob/ob mice with TUDCA (150 mg/kg/day) for 5 days and subsequently initiated leptin (1 mg/kg) treatment. […] Body weight of the ob/ob mice decreased further with leptin and TUDCA co-treatment and reached to 34.39±1.30 g from 50.55±1.14 g (Lep vs. TUD+Lep, p<0.001). […] Furthermore, to investigate the metabolic homeostasis in more detail, we placed the mice in metabolic cages. […] Heat generation was the same between the groups (FIG. 5j). Next, we analyzed the whole body fat composition by DEXA scan. […] Finally, analysis of lean mass has shown that none of the treatments lead to a significant change in this parameter ([…]). We additionally investigated the effect of TUDCA and leptin co-treatment on C57BL/6 wt-lean mice.
We next tested the efficacy of TUDCA as a leptin sensitizer in the HFD-induced obesity model. In this experiment we used 35 weeks old and C57BL/6 wt mice, which were kept on HFD-feeding for 32 weeks. We divided the mice into two groups for TUDCA and TUDCA-leptin co-treatment. Body weight of the mice in this cohort was between 35-52 g. We specifically chose the mice with the highest bodyweight for TUDCA and leptin co-treatment group to investigate whether leptin will become effective in these severely obese mice when administered along with the TUDCA. The initial body weight of the TUDCA group was 38.33±1.16 (g) and TUDCA+leptin group was 48.46±1.82 (g) (FIG. 5n). […]

[3] = oral PBA 1 g/kg/day alone vs vehicle
[4] = leptin 1 mg/kg/day IP, vehicle or PBA (1 g/kg/day) pretreated
[5] = leptin 5 mg/kg/day IP, 16 days, vehicle or PBA (1 g/kg/day) pretreated

O=C(O)CCCc1ccccc1 [PBA, 4-phenyl butyric acid]
leptin sensitization ([1]; PBA + 0.1 mg/kg/day leptin gives weight loss equivalent to 1 mg/kg/day leptin alone): ten-fold
body weight [1, 3]: did not affect
food consumption [1, 3]: did not affect

C[C@H](CCC(=O)NCCS(=O)(=O)O)[C@H]1CC[C@H]2[C@@H]3[C@@H](O)C[C@@H]4C[C@H](O)CC[C@]4(C)[C@H]3CC[C@]12C [TUDCA, tauroursodeoxycholic acid]
blood glucose levels ([2]; 18th day of treatment, TUDCA 150 mg/kg/day, leptin 1 mg/kg/day): lowered
body weight ([2]; TUDCA 150 mg/kg/day alone): did not decrease

leptin: adipocyte-derived hormone that suppresses appetite
initial body weight ([1]; before leptin 1 mg/kg/day): 57.10 ± 0.58 g
initial body weight ([1]; before leptin 5 mg/kg/day): 56 ± 1.16 g
effect on body weight ([1]; leptin 0.1 mg/kg/day IP alone (vehicle pretreated)): did not significantly reduce
body weight after treatment [1, 4]: 46.61 ± 0.52 g
decrease in bodyweight [1, 4]: 17.73%
food intake ([1]; leptin 5 mg/kg/day IP after 10 days vehicle or PBA (1 g/kg/day) pretreatment): significantly inhibited
body weight after treatment [1, 5]: 41.13 ± 2.35 g
decrease in bodyweight from the initial weight [1, 5]: 27.33±2.65%
initial body weight ([2]; before leptin 1 mg/kg, with or without TUDCA 150 mg/kg/day): 50.50 ± 0.55 g
percent decrease from the initial body weight ([2]; leptin 1 mg/kg/day, 18 days, with or without TUDCA 150 mg/kg/day): 9.27±1.34%
body weight after treatment ([2]; leptin 1 mg/kg/day, 18 days, with or without TUDCA 150 mg/kg/day (5 days pretreatment)): 43.75 ± 0.22 g
